Values of other authors in US20230404078A1, “HERBICIDAL COMBINATIONS” (priority 2020, published 2023).

What was measured:
broadleaf weeds = conditions: Clethodim itself
wheat = conditions: in vivo

Row | SMILES | efficacy against broadleaf weeds (broadleaf weeds) | injury in the wheat crop (wheat) | visual injury in wheat (wheat)
1 | CCSC(C)CC1CC(=O)C(/C(CC)=N/OC/C=C/Cl)=C(O)C1 (stereo not drawn) [Clethodim, 2-[1-[[[(2£)-3-chloro-2-propen-l-yl]oxy]imino]propyl]-5-[2-(ethylthio)propyl]-3-hydroxy-2-cyclohexen-1-one] | no efficacy |  | 
2 | COc1cc(OC)n2nc(NS(=O)(=O)c3c(C(F)(F)F)ccnc3OC)nc2n1 [Pyroxsulam] |  | greater than 10% | up to 10%
